# Assay results from patent US9821002B2, “Method for alleviating radiation injury with isorhamnetin-3-O-β-D-glucoside” (Sinotai Oncology Associate., Ltd., priority 2015, dated 2017).
# System: NMuMG cells
# Test: Apoptosis assay (FITC Annexin V/PI) after X-ray irradiation
# Assay type: cell-based, mouse
# Conditions: 2 h pretreatment, X-ray 15 Gy, 72 hours, mean ± SEM
# Excerpt: Four groups of BNL CL.2 cells (i.e., a normal control group referred to as Normal Control Group 1-A, an X-ray control group referred to as X-Ray Control Group 1-A, and two experimental groups referred to as Experimental Groups 1-A to 2-A), and six groups of NMuMG cells (i.e., a normal control group referred to as Normal Control Group 1-B, an X-ray control group referred to as X-Ray Control Group 1-B, two isorhamnetin groups referred to as Isorhamnetin Groups 1 to 2, and two experimental groups referred to as Experimental Groups 1-B to 2-B), were prepared based on the procedure set forth in “Source and cultivation of cell lines” of “Experimental materials”. BNL CL.2 cells in each group were cultivated using 5 mL of a corresponding medium shown in Table 1 and a 6-cm Petri dish in an amount of 2×10^5 cells per dish. Likewise, NMuMG cells in each group were cultivated using 5 mL of a corresponding medium shown in Table 1 and a 6-cm Petri dish in an amount of 2.5×10^5 cells per dish. The cultivation was conducted in an incubator (37° C., 5% CO2) for 24 hours.
# Subsequently, medium was replaced with fresh medium. The obtained cultures in Experimental Groups 1-A, 1-B, 2-A, and 2-B were pretreated with the stock solution of isorhamnetin-3-O-β-D-glucoside, and the obtained cultures in Isorhamnetin Groups 1 to 2 were pretreated with the stock solution of isorhamnetin.
# The culture in each group was then cultivated in an incubator (37° C., 5% CO2) for two hours. The resultant culture was used for the following experiments in sections B to D.
# The cultures in X-Ray Control Group 1-A, X-Ray Control Group 1-B, Isorhamnetin Group 1, Isorhamnetin Group 2, Experimental Group 1-A, Experimental Group 1-B, Experimental Group 2-A, and Experimental Group 2-B, prepared according to section A of “Experimental procedures” in this example, were subjected to X-ray irradiation using a linear accelerator at a dose of 15 Gy. The cultures in Normal Control Groups 1-A and 1-B received no X-ray irradiation treatment. The culture of BNL CL.2 cells in each group was cultivated using a 6-cm Petri dish in an incubator (37° C., 5% CO2) for 96 hours, and the culture of NMuMG cells in each group was cultivated using a 6-cm Petri dish in an incubator (37° C., 5% CO2) for 72 hours. 1 mL of trypsin-EDTA was added to the culture in each group so as to detach the cells from the bottom of the Petri dish. Following this, 1 mL of a fresh medium (corresponding to the medium described in Table 1) was added to neutralize the activity of the trypsin, and the resultant cell suspension was transferred to a centrifuge tube with a pipette, followed by centrifugation at 1200 rpm for three minutes. The supernatant was removed, and the cell pellet thus obtained was washed once with cold PBS (pH 7.4), followed by centrifugation at 1200 rpm for 3 minutes. The supernatant was removed, and 100 μL of cold Annexin V binding buffer (BD Pharmingen™) was added to sufficiently re-suspend the cell pellet thereby obtaining a cell suspension having a cell concentration of 1.0×10^6 cells/mL. Afterward, 5 μL of FITC Annexin V (BD Pharmingen™) and 5 μL of propidium iodide (PI) staining solution (BD Pharmingen™) were added to the obtained cell suspension, followed by mixing evenly and standing in the dark at 4° C. for 30 minutes so as to obtain stained cells.
# Subsequently, the stained cells were analyzed using BD Accuri™ C6 flow cytometry, in which cells that could be stained with FITC Annexin V but not with PI (i.e., FITC Annexin V positive and PI negative) represented cells that were induced with early apoptosis; cells stained with both FITC Annexin V and PI (i.e., FITC Annexin V positive and PI positive) represented cells that were induced with late apoptosis; and cells that could not be stained with FITC Annexin V and PI (i.e., FITC Annexin V negative and PI negative) represented viable cells. The number of stained cells was calculated using BD Accuri™ C6 software. […]
smiles,measurement,setting,value
COc1cc(-c2oc3cc(O)cc(O)c3c(=O)c2O)ccc1O [Isorhamnetin],Apoptosis percentage,15 μM,22.87 ± 1.33%
same,Apoptosis percentage,30 μM,22.13 ± 0.29%
